Legend:
Test in all cases: relative viability (nuclei count vs DMSO), 5 days (fraction); higher = more cells survive
[1] = compound: CN(C/C=C/C1=CC=C(C=C1)Cl)CC2=CC=CC=C2N(CCO)S(=O)(=O)C3=CC=C(C=C3)OC [KN-93] + CC(=O)c1c(C)c2cnc(Nc3ccc(N4CCNCC4)cn3)nc2n(C2CCCC2)c1=O [Palbociclib] (partner 0.5 µM)
In short: (§1)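 For relative viability, nuclei counts in treated wells were divided by those in vehicle wells. Lung cancer cell lines had been pin-tool dosed in 1536-well plates the day after seeding and cultured for 5 days, then fixed and stained in one step (final 0.05% Triton X-100, 1% formaldehyde, 1 ug/ml Hoechst) and imaged at 4×. Doses were one drug alone or a fixed anchor-drug dose plus five library-drug doses (not always all listed) in √10 steps, and values are duplicate-plate medians.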

[2] = compound: CN(C/C=C/C1=CC=C(C=C1)Cl)CC2=CC=CC=C2N(CCO)S(=O)(=O)C3=CC=C(C=C3)OC [KN-93] + CCNC(=O)c1noc(-c2cc(C(C)C)c(O)cc2O)c1-c1ccc(CN2CCOCC2)cc1 [Luminespib] (partner 0.01 µM)
In short: as §1

[3] = compound: CN(C/C=C/C1=CC=C(C=C1)Cl)CC2=CC=CC=C2N(CCO)S(=O)(=O)C3=CC=C(C=C3)OC [KN-93] + C[C@]1(O)C[C@@H](c2nc(-c3ccc4ccc(-c5ccccc5)nc4c3)c3c(N)nccn32)C1 [Linsitinib] (partner 1 µM)
In short: as §1

[4] = compound: CN(C/C=C/C1=CC=C(C=C1)Cl)CC2=CC=CC=C2N(CCO)S(=O)(=O)C3=CC=C(C=C3)OC [KN-93] + NC(=O)Nc1cc(-c2cccc(F)c2)sc1C(=O)N[C@H]1CCCNC1 [AZD7762] (partner 0.2 µM)
In short: as §1

[5] = compound: CN(C/C=C/C1=CC=C(C=C1)Cl)CC2=CC=CC=C2N(CCO)S(=O)(=O)C3=CC=C(C=C3)OC [KN-93] + O=C(c1cc(Cc2n[nH]c(=O)c3ccccc23)ccc1F)N1CCN(C(=O)C2CC2)CC1 [Olaparib] (partner 8 µM)
In short: as §1

Row | Cell Line | relative viability ([1]; first compound 0.08 µM) | relative viability ([1]; first compound 0.253 µM) | relative viability ([1]; first compound 2.53 µM) | relative viability ([1]; first compound 8 µM) | relative viability ([2]; first compound 0.08 µM) | relative viability ([2]; first compound 0.253 µM) | relative viability ([2]; first compound 2.53 µM) | relative viability ([2]; first compound 8 µM) | relative viability ([3]; first compound 0.08 µM) | relative viability ([3]; first compound 0.253 µM) | relative viability ([3]; first compound 2.53 µM) | relative viability ([3]; first compound 8 µM) | relative viability ([4]; first compound 0.08 µM) | relative viability ([4]; first compound 0.253 µM) | relative viability ([4]; first compound 2.53 µM) | relative viability ([4]; first compound 8 µM) | relative viability ([5]; first compound 0.08 µM) | relative viability ([5]; first compound 0.253 µM) | relative viability ([5]; first compound 2.53 µM) | relative viability ([5]; first compound 8 µM)
1 | NCI-H650 | 0.314 | 0.307 | 0.327 | 0.271 | 0.697 | 0.76 | 0.855 | 0.579 | 0.893 | 0.836 | 1.21 | 0.562 | 0.984 | 0.996 | 1.23 | 0.978 | 0.425 | 0.366 | 0.368 | 0.397
2 | NCI-H727 | 0.606 |  | 0.67 | 0.655 | 0.367 | 0.326 | 0.351 | 0.376 | 0.292 | 0.223 | 0.256 | 0.223 | 0.643 |  | 0.627 | 0.471 | 0.69 |  | 0.744 | 0.738
3 | NCI-H838 | 0.222 | 0.182 | 0.216 | 0.212 | 0.306 | 0.268 | 0.197 | 0.223 | 0.989 | 0.905 | 1.15 | 0.771 | 0.842 | 0.884 | 0.992 | 0.831 | 0.939 | 0.709 | 1.18 | 0.613
4 | NCI-H1355 | 0.427 | 0.342 | 0.436 | 0.332 | 0.616 | 0.636 | 0.574 | 0.552 | 0.732 | 0.769 | 0.805 | 0.699 | 0.822 | 0.694 | 0.826 | 0.703 | 0.628 | 0.67 | 0.766 | 0.477
5 | NCI-H1395 | 0.602 | 0.69 | 0.598 | 0.478 | 0.631 | 0.619 | 0.664 | 0.604 | 1.66 | 1.13 | 1.07 | 0.427 | 0.421 | 0.403 | 0.391 | 0.345 | 0.452 | 0.48 | 0.424 | 0.419
6 | NCI-H1437 | 0.325 | 0.285 | 0.271 | 0.294 | 0.999 | 1.3 | 0.907 | 0.559 | 0.879 | 1.41 | 1.04 | 0.487 | 1.16 | 1.29 | 1.24 | 0.654 | 0.626 | 0.683 | 0.564 | 0.456
7 | NCI-H1651 | 0.511 | 0.536 | 0.582 | 0.488 | 0.757 | 0.829 | 0.757 | 0.546 | 0.816 | 1.33 | 1.11 | 0.622 | 0.394 | 0.505 | 0.526 | 0.353 | 0.203 | 0.178 | 0.199 | 0.179
8 | NCI-H1666 | 0.639 | 0.656 | 0.669 | 0.622 | 0.946 | 1.13 | 1.1 | 0.941 | 0.837 | 0.672 | 1.11 | 0.588 | 0.863 | 0.874 | 0.802 | 0.788 | 0.726 | 0.716 | 0.702 | 0.762
9 | NCI-H1734 | 0.345 | 0.396 | 0.335 | 0.263 | 0.167 | 0.17 | 0.181 | 0.179 | 0.855 | 0.949 | 1.03 | 0.734 | 0.465 | 0.627 | 0.597 | 0.441 | 0.496 | 0.677 | 0.611 | 0.518
10 | NCI-H1755 | 0.478 | 0.462 | 0.45 | 0.455 | 0.457 | 0.436 | 0.285 | 0.221 | 1.01 | 1.05 | 1.05 | 0.837 | 0.392 | 0.411 | 0.444 | 0.407 | 0.806 | 0.804 | 0.909 | 0.827
11 | NCI-H1792 | 0.401 | 0.649 | 0.796 | 0.605 | 0.272 | 0.396 | 0.31 | 0.367 |  | 0.573 | 0.567 | 0.394 | 0.583 | 0.504 | 0.683 | 0.353 | 0.351 | 0.312 | 0.392 | 0.311
12 | NCI-H1793 | 0.38 | 0.311 | 0.318 | 0.253 | 0.193 | 0.179 | 0.195 | 0.166 |  | 1.18 | 0.925 | 0.673 | 0.358 | 0.458 | 0.454 | 0.159 | 0.74 | 0.83 | 0.783 | 0.382
13 | NCI-H1915 | 0.536 | 0.537 | 0.513 | 0.438 | 0.567 | 1.47 | 0.846 | 0.748 | 1.03 | 1.16 | 1.12 | 1.03 | 0.67 | 0.735 | 0.632 | 0.671 | 0.248 | 0.264 | 0.276 | 0.255
14 | NCI-H1944 | 0.368 | 0.328 | 0.327 | 0.243 | 0.741 | 0.699 | 0.729 | 0.43 | 1.29 | 1.21 | 1.11 | 1.02 | 0.527 | 0.433 | 0.585 | 0.579 | 0.356 | 0.378 | 0.401 | 0.334
